Data on 13 compounds can be found in patent publication US9637516B2, “Betulinic acid proline derivatives as HIV inhibitors” (HETERO RESEARCH FOUNDATION, priority 2012, dated 2017).

Usually IC50 stands for the midpoint of a concentration-inhibition curve. One may read the AUC(0-inf) as total exposure, with the tail of the curve extrapolated. The low end stands for less exposure, the high end for more exposure. One may read the AUC(0-t) as exposure summed from dosing to a finite time, without extrapolation to infinity. A high value points to more exposure. As usually defined, the Cmax is the highest concentration seen after dosing. What is called half-life is the time needed for the level to fall by half in the phase considered. Low values mean rapid decline, high ones slow decline. What is called Tmax is the time at which the peak concentration occurs. As usually defined, the inhibition is the percentage by which the read-out fell short of the control.

One data set relates to HIV-1 strain 92HT599. The data set is described as follows: Antiviral activity: p24 estimation in MT2 cells infected with HIV-1 strain 92HT599. The format is cell-based. The settings on record: for IC50: Human immunodeficiency virus 1, HIV-1 92HT599, p24; for inhibition at 0.1 µM: Human immunodeficiency virus 1, 100 nM; for inhibition at 0.1 µM / inhibition at 1 µM: HIV-1 92HT599, p24, ~96 hours; for inhibition at 1 µM: Human immunodeficiency virus 1, 1000 nM. Here is the method:
MT2 cells were infected with HIV-1 strain 92HT599 (10 TCID 50/30000 cells). The infected cells were plated at the concentration of ˜30 000 cells per well in 96 well plate. Test compound was added to the micro plate in defined format with the final concentration of DMSO (vehicle) is not more than 1%. Incubation was carried out in CO2 incubator for ˜96 hours for viral infection. At the end of incubation period an aliquot from each well was taken for p24 estimation. The quantitation of p24 is an index for antiviral activity of the compound. Percent inhibition was calculated with reference to control values (vehicle controls). p-24 estimation was carried out using Advance biosciences kit as per the procedure detailed by supplier.

Data set [1] can be described thus: Single dose oral pharmacokinetic study. The class given is in vivo, mice. As to conditions: mouse, plasma. Here is the method: The test item was administered through oral route to animals (rat/mice) at 30 mg/kg dose in a suitable vehicle at 10 ml/kg dose volume. Blood samples (˜50 uL at each time point) were collected from retro-orbital plexus using K3 EDTA as anticoagulant in eppendorf tubes at defined time intervals under light ether anesthesia. The samples were centrifuged at 3500×g to separate plasma and stored at −80° C. until analysis.
Sample analysis: Test samples were analyzed using LC-MS-MS after developing fit-for-purpose method for each of test compound.

Setting [2] is: Mice oral PK @30 mg/kg (Table 4).
Where [3] appears, read: Mice oral PK @30 mg/kg (Table 3).

For the compound `CC(C)(CC(=O)O[C@H]1CC[C@]2(C)[C@H]3CC[C@@H]4[C@H]5[C@H](C6(C)CC6)CC[C@]5(C(=O)N5CCC[C@H]5c5ncc(-c6cccs6)[nH]5)CC[C@@]4(C)[C@]3(C)CC[C@H]2C1(C)C)C(=O)O` [Compound 38], in the data set on HIV-1 strain 92HT599, the IC50 is 8.4 nM. In data set [1] (setting [2]), this compound showed an AUC(0-inf) of 119 µg·h/mL, an AUC(0-t) of 110 µg·h/mL, a Cmax of 7000 ng/mL and a half-life of 12.3 h.
For `CC(C)(CC(=O)O)CC(=O)O[C@H]1CC[C@]2(C)[C@H]3CC[C@@H]4[C@H]5[C@H](C6(C)CC6)CC[C@]5(C(=O)N5CCCC5c5ncc(-c6cccnc6)[nH]5)CC[C@@]4(C)[C@]3(C)CC[C@H]2C1(C)C` (stereo partly shown) [Compound 31] the same measures were 1.62 nM, 145 µg·h/mL, 136 µg·h/mL, 9300 ng/mL and 10.9 h.
Turning to `C=C(C)[C@@H]1CC[C@]2(C(=O)N3CCC[C@@H]3c3nc(-c4ccccc4)no3)CC[C@]3(C)[C@H](CC[C@@H]4[C@@]5(C)CC[C@H](OC(=O)CC(C)(C)C(=O)O)C(C)(C)[C@@H]5CC[C@]43C)[C@@H]12` [Compound 1, 2,2-dimethyl-4-oxo-4-((1R,3aS,5aR,5bR,7aR,9S,11aR,11bR,13aR,13bR)-5a,5b,8,8,11a-pentamethyl-3a-((R)-2-(3-phenyl-1,2,4-oxadiazol-5-yl)pyrrolidine-1-carbonyl)-1-(prop-1-en-2-yl)icosahydro-1H-cyclopenta[a]chrysen-9-yloxy)butanoic acid], the IC50 in the data set on HIV-1 strain 92HT599 was 5.02 nM. Moreover, in data set [1] (setting [3]), the AUC(0-t) came to 125 µg·h/mL, the concentration peaked (Cmax) at 12700 ng/mL and the Tmax amounted to 6 h.
As for `C=C(C)[C@@H]1CC[C@]2(C(=O)N3CCC[C@@H]3c3nc(-c4cccnc4)no3)CC[C@]3(C)[C@H](CC[C@@H]4[C@@]5(C)CC[C@H](OC(=O)CC(C)(C)CC(=O)O)C(C)(C)[C@@H]5CC[C@]43C)[C@@H]12` [Compound 4, 3,3-dimethyl-5-oxo-5-((1R,3aS,5aR,5bR,7aR,9S,11aR,11bR,13aR,13bR)-5a,5b,8,8,11a-pentamethyl-1-(prop-1-en-2-yl)-3a-((R)-2-(3-(pyridin-3-yl)-1,2,4-oxadiazol-5-yl)pyrrolidine-1-carbonyl)icosahydro-1H-cyclopenta[a]chrysen-9-yloxy)pentanoic acid], in the data set with HIV-1 strain 92HT599, the inhibition at 0.1 µM is 84%, the inhibition at 1 µM is 96% and the IC50 was 8.64 nM. Moreover, in data set [1] (setting [3]), the AUC(0-t) turned out to be 36.9 µg·h/mL, the peak level (Cmax) was 4830 ng/mL and the Tmax was 2.5 h.
As for `CC(C)(CC(=O)O[C@H]1CC[C@]2(C)[C@H]3CC[C@@H]4[C@H]5[C@H](C6(C)CC6)CC[C@]5(C(=O)N5CCC[C@H]5c5ncc(-c6ccc(F)cc6)[nH]5)CC[C@@]4(C)[C@]3(C)CC[C@H]2C1(C)C)C(=O)O` [Compound 33, 4-(((1R,3aS,5aR,5bR,7aR,9S,11aR,11bR,13aR,13bR)-3a-((S)-2-(5-(4-fluorophenyl)-1H-imidazol-2-yl)pyrrolidine-1-carbonyl)-5a,5b,8,8,11a-pentamethyl-1-(1-methylcyclopropyl)icosahydro-1H-cyclopenta[a]chrysen-9-yl)oxy)-2,2-dimethyl-4-oxobutanoic acid], the IC50 with HIV-1 strain 92HT599 was 9.5 nM. In data set [1] (setting [2]), this compound gave an AUC(0-inf) of 152 µg·h/mL, an AUC(0-t) of 88.7 µg·h/mL, a Cmax of 4400 ng/mL and a half-life of 32.1 h.
`CC(C)(CC(=O)O[C@H]1CC[C@]2(C)[C@H]3CC[C@@H]4[C@H]5[C@H](C6(C)CC6)CC[C@]5(C(=O)N5CCC[C@H]5c5ncc(-c6cccnc6)[nH]5)CC[C@@]4(C)[C@]3(C)CC[C@H]2C1(C)C)C(=O)O` [Compound 30, 2,2-dimethyl-4-oxo-4-(((1R,3aS,5aR,5bR,7aR,9S,11aR,11bR,13aR,13bR)-5a,5b,8,8,11a-pentamethyl-1-(1-methylcyclopropyl)-3a-((S)-2-(5-(pyridin-3-yl)-1H-imidazol-2-yl)pyrrolidine-1-carbonyl)icosahydro-1H-cyclopenta[a]chrysen-9-yl)oxy)butanoic acid]: the IC50 with HIV-1 strain 92HT599 is 3.83 nM. In addition, in data set [1] (setting [2]), the AUC(0-inf) worked out at 57.8 µg·h/mL, the AUC(0-t) came to 54.6 µg·h/mL, the Cmax came to 6400 ng/mL and the half-life is 1.7 h.
For `CC1(C)C(C(=O)O)CC1C(=O)O[C@H]1CC[C@]2(C)[C@H]3CC[C@@H]4[C@H]5[C@H](C6(C)CC6)CC[C@]5(C(=O)N5CCC[C@H]5c5ncc(-c6ccccc6)[nH]5)CC[C@@]4(C)[C@]3(C)CC[C@H]2C1(C)C` (stereo partly drawn) [Compound 43, 2,2-dimethyl-3-((((1R,3aS,5aR,5bR,7aR,9S,11aR,11bR,13aR,13bR)-5a,5b,8,8,11a-pentamethyl-1-(1-methylcyclopropyl)-3a-((S)-2-(5-phenyl-1H-imidazol-2-yl)pyrrolidine-1-carbonyl)icosahydro-1H-cyclopenta[a]chrysen-9-yl)oxy)carbonyl)cyclobutane-1-carboxylic acid] the same measures were 4.4 nM, 776 µg·h/mL, 294 µg·h/mL, 13900 ng/mL and 55.6 h.
Regarding `C=C(C)[C@@H]1CC[C@]2(C(=O)N3CCCC3c3ncc(-c4ccc(C#N)cc4)[nH]3)CC[C@]3(C)[C@H](CC[C@@H]4[C@@]5(C)CC[C@H](OC(=O)[C@H]6C[C@@H](C(=O)O)C6(C)C)C(C)(C)[C@@H]5CC[C@]43C)[C@@H]12` (stereo partly shown) [Compound 19], in the data set on HIV-1 strain 92HT599, the inhibition at 0.1 µM was 86% and the inhibition at 1 µM is 100%.
In data set [1] (setting [2]), `C=C(C)[C@@H]1CC[C@]2(C(=O)N3CCC[C@H]3c3ncc(-c4ccc(O)cc4)[nH]3)CC[C@]3(C)[C@H](CC[C@@H]4[C@@]5(C)CC[C@H](OC(=O)C6CC(C(=O)O)C6(C)C)C(C)(C)[C@@H]5CC[C@]43C)[C@@H]12` (stereo partly drawn) [Compound 36, 3-((((1R,3aS,5aR,5bR,7aR,9S,11aR,11bR,13aR,13bR)-3a-((S)-2-(5-(4-hydroxyphenyl)-1H-imidazol-2-yl)pyrrolidine-1-carbonyl)-5a,5b,8,8,11a-pentamethyl-1-(prop-1-en-2-yl)icosahydro-1H-cyclopenta[a]chrysen-9-yl)oxy)carbonyl)-2,2-dimethylcyclobutane-1-carboxylic acid] showed an AUC(0-inf) of 518 µg·h/mL, an AUC(0-t) of 334 µg·h/mL, a Cmax of 10900 ng/mL and a half-life of 30.3 h.
With `C=C(C)[C@@H]1CC[C@]2(C(=O)N3CCC[C@H]3c3ncc(-c4ccccc4)[nH]3)CC[C@]3(C)[C@H](CC[C@@H]4[C@@]5(C)CC[C@H](OC(=O)[C@@H]6C[C@H](C(=O)O)C6(C)C)C(C)(C)[C@@H]5CC[C@]43C)[C@@H]12` [Compound 27, (1S,3R)-2,2-dimethyl-3-((((1R,3aS,5aR,5bR,7aR,9S,11aR,11bR,13aR,13bR)-5a,5b,8,8,11a-pentamethyl-3a-((S)-2-(5-phenyl-1H-imidazol-2-yl)pyrrolidine-1-carbonyl)-1-(prop-1-en-2-yl)icosahydro-1H-cyclopenta[a]chrysen-9-yl)oxy)carbonyl)cyclobutane-1-carboxylic acid], the IC50 in the data set on HIV-1 strain 92HT599 is 11 nM. In data set [1] (setting [2]), this compound gave an AUC(0-inf) of 535 µg·h/mL, an area under the curve AUC(0-t) of 231 µg·h/mL, a Cmax of 10100 ng/mL and a half-life of 38.1 h.
Consider `C=C(C)[C@@H]1CC[C@]2(C(=O)N3CCC[C@@H]3c3ncc(-c4ccccc4)[nH]3)CC[C@]3(C)[C@H](CC[C@@H]4[C@@]5(C)CC[C@H](OC(=O)C6CC(C(=O)O)C6(C)C)C(C)(C)[C@@H]5CC[C@]43C)[C@@H]12` (stereo partly drawn) [Compound 41, 2,2-dimethyl-3-((((1R,3aS,5aR,5bR,7aR,9S,11aR,11bR,13aR,13bR)-5a,5b,8,8,11a-pentamethyl-3a-((R)-2-(5-phenyl-1H-imidazol-2-yl)pyrrolidine-1-carbonyl)-1-(prop-1-en-2-yl)icosahydro-1H-cyclopenta[a]chrysen-9-yl)oxy)carbonyl)cyclobutane-1-carboxylic acid], for which, in the data set on HIV-1 strain 92HT599, the inhibition at 0.1 µM is 98% and the inhibition at 1 µM is 99%.
In the same order, the values of `CC1(C)C(C(=O)O)CC1C(=O)O[C@H]1CC[C@]2(C)[C@H]3CC[C@@H]4[C@H]5[C@H](C6(C)CC6)CC[C@]5(C(=O)N5CCC[C@H]5c5ncc(-c6cccnc6)[nH]5)CC[C@@]4(C)[C@]3(C)CC[C@H]2C1(C)C` (stereo partly drawn) [Compound 32, 2,2-dimethyl-3-((((1R,3aS,5aR,5bR,7aR,9S,11aR,11bR,13aR,13bR)-5a,5b,8,8,11a-pentamethyl-1-(1-methylcyclopropyl)-3a-((S)-2-(5-(pyridin-3-yl)-1H-imidazol-2-yl)pyrrolidine-1-carbonyl)icosahydro-1H-cyclopenta[a]chrysen-9-yl)oxy)carbonyl)cyclobutane-1-carboxylic acid] are 100% and 100%.
In the same order, the values of `C=C(C)[C@@H]1CC[C@]2(C(=O)N3CCC[C@H]3c3ncc(-c4ccc([N+](=O)[O-])cc4)[nH]3)CC[C@]3(C)[C@H](CC[C@@H]4[C@@]5(C)CC[C@H](OC(=O)[C@H]6C[C@@H](C(=O)O)C6(C)C)C(C)(C)[C@@H]5CC[C@]43C)[C@@H]12` [Compound 17] are 96% and 100%.
